Experimental data reported in patent US20090264421A1 (priority 2007, published 2009).
Where two headings read alike, the source gives them in different places.

Assays:
A549 cells [1] = details: for effect of NAC on reductions in colony formation caused by HDAC inhibitors: data not shown
Experimental: FIG. 5. […] B. Assessment of intracellular (A549 cells) and extracellular (media) chaetocin concentrations as functions of time in response to addition of 10 μM chaetocin to tissue culture media at time 0. C. […] For B and C, chaetocin concentrations were determined as described in the text using HPLC. […] Cells were exposed to all agents for 24 hours, with colonies assessed 6-7 days subsequently as described below.
FIG. 6. […] C. and D. The effects of glutathione pretreatment on intracellular (C) and extracellular (media, D) chaetocin concentration in response to treatment of A549 cells with 10 μM chaetocin for 5 min. Intracellular and extracellular chaetocin concentrations were assessed using HPLC as described in the text, with 100 μM glutathione added 5 minutes before chaetocin addition. E. “Double reciprocal” plot indicating the effects of 5 minute pretreatment with 100 […] glutathione or diluent on intracellular chaetocin concentrations resulting from exposure of A549 cells to varying concentration of chaetocin for 5 minutes. Intracellular chaetocin concentrations were assessed using HPLC as described in the text. Results shown are representative of three independent experiments.
Colony formatting assays: Briefly, 650 suspended A549 cells obtained from trypsinization of stock flasks of subconfluent cell cultures were deposited into each of triplicate sets of 35 mm tissue culture plates and allowed to adhere for 16 hours. Cells were then treated for the indicated durations (24 hours unless otherwise indicated) with diluent and/or drugs as indicated in the text and Figures. After drug removal and washing, cells were allowed to proliferate in drug-free medium for 7 to 10 days, and thereafter washed twice with serum-free phosphate buffered saline (PBS), stained with Coomassie blue, and then manually counted.

A549 cells [2] = assay type: cell-based, human
Experimental: FIG. 7. […] A549 cells were exposed to the indicated concentration of chaetocin for 24 hours, with addition of glutathione or diluent 30 minutes prior to chaetocin addition. Glutathione levels were assessed by spectrophotometric assay as described below. […] Cells were treated with 10 μM chaetocin for 20 minutes prior to assay, and calculated intracellular chaetocin levels were measured by HPLC with adjusted for differences in average cell volume (calculated from measured cell radii ascertained via light microscopy). Shaded area represents 1 standard deviation confidence interval, with central bar reflecting the mean relative intracellular chaetocin level. […] Cells from 4 myeloma patients were exposed to 200 μM hydrogen peroxide for 24 hours prior to assay, with trypan blue exclusion used to assess surviving cells.
Assessment of cellular oxidative stress: Cellular oxidative stress was assessed utilizing 5,6-chloromethyl-2′,7′-dichlorodihydrofluorescein diacetate or hydroethidium (Molecular Probes/Invitrogen, Carlsbad, Calif.) as cell permeable fluorescent probes and FACS analyses.

[3] = system: freshly collected sorted patient CD138+ myeloma cells; details: 24 hours
Experimental: FIG. 3. […] Survival indicated in A-E was assessed using a trypan blue exclusion assay, counting viable cells using a hemocytometer after 24 hour exposure to the indicated drugs and drug concentrations.
Patient bone marrow leukocytes were divided into myeloma (CD138+) and non-myeloma/normal leukocyte (CD138−) fractions employing sorting using magnetic bead technology in kit form (MACS CD138 microbeads, Miltenyi Biotech, Auburn, Calif.). Sorted cells were plated in a 96-well tissue culture plate at a concentration of 5×10^5 cells and dosed with indicated drug concentrations for 24 hours. Survival was assessed using a trypan blue exclusion assay.

HeLa cells = assay: Transient thioredoxin overexpression in HeLa cells, trypan blue viability; assay type: cell-based, human; details: 100 nM, 24 hours
Experimental: A. Transient overexpression of thioredoxin attenuates chaetocin—but not doxorubicin-induced cytotoxicity in HeLa cells. Transfected cells were treated for 24 hours, cell viability assessed using a trypan blue […] assay. Inset: immunoblotting showing increased level of thioredoxin in transiently transfected HeLa cells compared to empty-vector transfected cells. B. Model indicating how chaetocin competes with thioredoxin as a substrate for thioredoxin reductase, thereby serving to attenuate reduction of the thioredoxin reductase downstream substrate and effector thioredoxin. Figure numbers corresponding to experimental data supporting indicated effects are shown.
Cell culture, transient transfections, and immunoblotting: HeLa cells were cultured in RPMI 1640 containing 5% FBS and 2 mM L-glutamine. Cells were passaged twice weekly and maintained in 37° C. in an atmosphere containing 95% air-5% CO2 (vol/vol). For transfections, 10^5 cells per well were plated in 12-well plates and were transfected with 1 μg pcDNA or pcDNA-Trx using standard Lipofectamine-Plus procedures. Transfection efficiency based on cells transfected with GFP was 80%. […] The cells were then trypsinized and manually counted in trypan blue to exclude dead cells. […] Protein was analyzed by BCA assay and lysates were electrophoresed on 15% SDS-PAGE gels and transferred to nitrocellulose. […]

A549 cells [4] = assay type: cell-based, human; details: glutathione added 5 minutes before 10 μM chaetocin
Text: Measurement of intra- and extracellular chaetocin levels: Tumor cells treated with indicated chaetocin concentrations were washed twice with ice cold PBS, immediately solubilized in 0.5 M perchloric acid, and evaluated “real time” via HPLC using Beckman System Gold Nouveau Software with a dual pump 125 gradient pump system, 507e autosampler, 168 diode array detector, and Beckman Ultrasphere ODS column (4.6 mm×[…]×7 μm) using the following elution profile: 100% water to 100% methanol linear gradient over 40 minutes, followed by a 10 minute period of elution with 100% methanol. Quantitation was accomplished using a standard curve of peak areas derived from analogous HPLC data using varying concentrations of chaetocin.

thioredoxin reductase = molecular target: T1, thioredoxin reductase (Rattus norvegicus, UniProt O89049); assay: Thioredoxin reductase activity assay (gel-based oxidation state of thioredoxin method); assay type: biochemical; details: gel-based, AMS modification
T1 construct: rat liver thioredoxin reductase; purchased Sigma (St. Louis, Mo.); host or cells: rat liver
T1 sequence (O89049 1-499): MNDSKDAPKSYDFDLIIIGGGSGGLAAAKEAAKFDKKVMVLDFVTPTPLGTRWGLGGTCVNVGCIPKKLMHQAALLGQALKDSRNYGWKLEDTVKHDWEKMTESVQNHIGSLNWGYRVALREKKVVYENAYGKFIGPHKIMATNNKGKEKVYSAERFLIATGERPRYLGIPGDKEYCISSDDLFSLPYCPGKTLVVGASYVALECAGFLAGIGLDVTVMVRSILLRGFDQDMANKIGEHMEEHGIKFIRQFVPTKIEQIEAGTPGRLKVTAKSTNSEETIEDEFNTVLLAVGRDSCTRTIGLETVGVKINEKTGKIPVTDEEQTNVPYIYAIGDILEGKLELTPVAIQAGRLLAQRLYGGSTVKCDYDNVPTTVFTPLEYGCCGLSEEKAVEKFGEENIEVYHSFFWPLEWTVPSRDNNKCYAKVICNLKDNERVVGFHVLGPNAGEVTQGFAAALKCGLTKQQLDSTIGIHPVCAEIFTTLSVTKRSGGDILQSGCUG
Experimental: HeLa cells were obtained from ATCC.
Thioredoxin Reductase Activity Assay (gel-based oxidation state of thioredoxin method): Reduction of thioredoxin by thioredoxin reductase was measured by the decrease in electrophoretic mobility caused by covalent modification of thioredoxin (by AMS) when the disulfide is reduced. […] At the indicated time, a 5 μL sample was removed and immediately added to 5 μL of 30 mM AMS in TE buffer (pH 7.5). The AMS was allowed to react (15 minutes at 22° C.) with reduced thioredoxin sulfhydryl groups, then the samples were mixed with non-reducing sample buffer and were electrophoresed on 18% Tris-HCl SDS-PAGE gels. The gels were stained with Coomassie blue and bands were imaged and quantitated using a Syngene InGenius gel documentation system (Frederick, Md.).

TrxR1 = molecular target: T2, TrxR1 (Rattus norvegicus, UniProt O89049)
T2 sequence (O89049 1-499): T1 sequence (O89049 1-499)
Text: Reagents: Chaetocin, β-Nicotinamide adenine dinucleotide 2′-phosphate reduced tetrasodium salt hydrate (NADPH), rat liver thioredoxin reductase, 5,5′-dithiobis(2-nitrobenzoic acid) (DTNB), oxidized glutathione (GSSG), bovine insulin, gliotoxin, thioredoxin reductase assay kit, anti-actin antibody and Celytic lysis reagent were purchased from Sigma (St. Louis, Mo.); yeast glutathione reductase and Complete Protease Inhibitor Tablets from Roche (Indianapolis, Ind.); BCA protein from Pierce (Rockford, Ill.); oxidized E. coli thioredoxin and dithiothreitol (DTT) from Promega (Madison, Wis.); verruculogen from Calbiochem (San Diego, Calif.); 4-acetamido-4′-maleimidylstilbene-2,2′-disulfonic acid (AMS) and Lipofectamine-Plus from Invitrogen (Carlsbad, Calif.); chaetomin from Alexis Biochemicals (San Diego, Calif.); and anti-thioredoxin antibody from Cell Signaling (Beverly, Mass.). HeLa cells were obtained from ATCC.
Steady-state kinetics: The 100 μL reaction consisted of 100 mM potassium phosphate (pH 7.0), 10 mM EDTA, 0.0004 U/μL thioredoxin reductase and chaetocin or other compounds as indicated. The assay was carried out in a 96-well quartz plate and the oxidation of NADPH was measured as a change in absorption at 340 nm. The initial velocities of the reaction were calculated from the decrease in the absorbance between 0 and 5 min (slope), and on a pathlength of 0.3 cm and NADPH ε=6.22 mmol^−1*cm^−1*L. The velocity versus concentration data were then analyzed using SigmaPlot's Enzyme Kinetics 1.3 program (Systat Software, San Jose, Calif.).

[5] = substrate of TrxR1, NADPH oxidation

Compound: O=C(/C=C/c1ccc(CN(CCO)CCc2c[nH]c3ccccc23)cc1)NO [LAQ-824]
- effect of NAC on reductions in colony formation caused by HDAC inhibitors (A549 cells [1]; A549 cells): unaffected by NAC

Compound: OO [H2O2, hydrogen peroxide]
- cellular oxidative stress (A549 cells [2]; 24 hours, FACS probe): increased intracellular oxidative species
- sensitivity of patient myeloma cells versus matched normal leukocytes ([3]; 200 μM hydrogen peroxide, 4 patients): more sensitive to peroxide-induced cytotoxicity

Compound: COc1cccc2c1C(=O)c1c(O)c3c(c(O)c1C2=O)C[C@@](O)(C(=O)CO)C[C@@H]3O[C@H]1C[C@H](N)[C@H](O)[C@H](C)O1 [doxorubicin]
- effect of transient Trx overexpression on drug-induced cell death (HeLa cells): did not appreciably rescue cells from doxorubicin-induced cell death
- activity against sorted patient CD138+ myeloma cells ([3]; ex vivo, trypan blue exclusion): largely resistant

Compound: N[C@@H](CCC(=O)N[C@@H](CS)C(=O)NCC(=O)O)C(=O)O [glutathione, reference compound]
- effect of co-treatment on chaetocin-induced reductions in colony formation (A549 cells [1]): attenuated chaetocin-induced cytotoxicity
- effect of pretreatment on cellular accumulation of chaetocin (A549 cells [4]): attenuated the cellular accumulation of chaetocin

Compound: CN1C(=O)[C@]2(Cc3cn([C@]45C[C@@]67SS[C@@](CO)(C(=O)N6[C@H]4Nc4ccccc45)N(C)C7=O)c4ccccc34)SS[C@@]1(CO)C(=O)N2C [chetomin, chaetomin]
- inhibition of reduction of thioredoxin by thioredoxin reductase (thioredoxin reductase): also inhibited the activity of thioredoxin reductase, albeit somewhat less effectively than chaetocin
- Km (TrxR1; [5]): 16.1 ± 5.4 µM

Compound: CS[C@@]1(CO)C(=O)N2[C@H]3Nc4ccccc4[C@@]3([C@]34C[C@]5(SC)C(=O)N(C)[C@@](CO)(SC)C(=O)N5[C@H]3Nc3ccccc34)C[C@]2(SC)C(=O)N1C [S-methyl chaetocin]
- inhibition of reduction of thioredoxin by thioredoxin reductase (thioredoxin reductase): inability
- cytotoxicity (colony formation) (A549 cells [1]; 24 hour exposure, modified chaetocin disulfide bond): complete abrogation of its cytotoxicity

Compound: Trx: TrxR1 native substrate thioredoxin (oxidized E. coli thioredoxin from Promega)
- Km (TrxR1; [5]): 105 ± 26 µM

Compound: CCCC(CCC)C(=O)O [valproic acid]
- effect of NAC on reductions in colony formation caused by HDAC inhibitors (A549 cells [1]; A549 cells): unaffected by NAC

Compound: CC(/C=C/C(=O)NO)=C\[C@@H](C)C(=O)c1ccc(N(C)C)cc1 [tricostatin A, trichostatin A]
- effect of NAC on reductions in colony formation caused by HDAC inhibitors (A549 cells [1]; A549 cells): unaffected by NAC

Compound: CN1C(=O)[C@]23CC4=CC=C[C@H](O)[C@H]4N2C(=O)[C@@]1(CO)SS3 [gliotoxin]
- inhibition of reduction of thioredoxin by thioredoxin reductase (thioredoxin reductase): also inhibited the activity of thioredoxin reductase, albeit somewhat less effectively than chaetocin
- Km (TrxR1): 16 ± 5 µM

Compound: CC(=O)N[C@@H](CS)C(=O)O [NAC, N-acetyl cysteine]
- effect of pretreatment on chaetocin-induced oxidative stress (A549 cells [2]; 10 mM NAC): attenuated chaetocin-induced oxidative stress
- effect of co-treatment on chaetocin-induced reductions in colony formation (A549 cells [1]; A549 cells, co-treatment with chaetocin): attenuated chaetocin-induced cytotoxicity

Compound: COc1ccc2c3c4n(c2c1)[C@H](C=C(C)C)OOC(C)(C)C[C@@H]4N1C(=O)[C@@H]2CCCN2C(=O)[C@]1(O)[C@H]3O [verruculogen, reference compound]
- inhibition of reduction of thioredoxin by thioredoxin reductase (thioredoxin reductase): inability
